Measurements published in patent US20250230171A1 (MOMA Therapeutics, Inc., priority 2023, published 2025).
Like-named read-outs stand apart in the source and are kept apart here.

Experiments:
DLD1 BRCA2 (−/−) cells = assay: 7-day cell viability assay (CellTiter-Glo), DLD1 BRCA2 (−/−); type: cell-based, human; details: 7-day viability, n=2, read-out: Viability IC50 (uM) DLD1 BRCA2 null
Summary of the method: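 7-day growth assay in DLD1 cells with or without BRCA2; seeding densities chosen to keep log-linear growth. Compound: 10 uM top, 3-fold, 9 points. Endpoint: CTG ATP luminescence at RT.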

[1] = molecular target: biotinylated Avi-POLθ[2-894] (Homo sapiens (Human), UniProt O75417); assay: POLθ ATPase assay (ADP-Glo); details: n=2; read-out: Biochemical ATPase ADPGlo IC50
Chain of biotinylated Avi-POLθ[2-894] (O75417 2-894): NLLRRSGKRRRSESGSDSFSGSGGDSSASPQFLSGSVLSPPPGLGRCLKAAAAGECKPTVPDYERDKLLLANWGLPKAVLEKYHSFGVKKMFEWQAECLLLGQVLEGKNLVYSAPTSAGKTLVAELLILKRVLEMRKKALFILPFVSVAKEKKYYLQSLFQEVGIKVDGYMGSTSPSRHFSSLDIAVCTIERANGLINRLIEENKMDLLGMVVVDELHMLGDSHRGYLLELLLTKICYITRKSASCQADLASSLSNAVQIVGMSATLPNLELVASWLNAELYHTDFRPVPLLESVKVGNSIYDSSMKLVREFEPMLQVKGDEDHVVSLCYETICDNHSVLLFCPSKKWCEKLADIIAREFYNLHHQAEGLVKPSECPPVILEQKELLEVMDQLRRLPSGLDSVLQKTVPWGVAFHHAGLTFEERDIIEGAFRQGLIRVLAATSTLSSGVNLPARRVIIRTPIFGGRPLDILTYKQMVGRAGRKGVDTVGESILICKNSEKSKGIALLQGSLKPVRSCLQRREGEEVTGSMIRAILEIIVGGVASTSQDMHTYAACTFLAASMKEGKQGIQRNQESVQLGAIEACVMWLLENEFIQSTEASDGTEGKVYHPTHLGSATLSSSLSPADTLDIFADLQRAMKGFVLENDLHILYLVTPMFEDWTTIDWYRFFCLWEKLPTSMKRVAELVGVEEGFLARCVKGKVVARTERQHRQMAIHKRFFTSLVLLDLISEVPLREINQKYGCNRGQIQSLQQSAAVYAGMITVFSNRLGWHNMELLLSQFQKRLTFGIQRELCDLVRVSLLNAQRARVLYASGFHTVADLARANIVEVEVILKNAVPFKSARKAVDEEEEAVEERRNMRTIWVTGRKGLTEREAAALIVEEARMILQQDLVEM

DLD1 WT cells = assay: 7-day cell viability assay (CellTiter-Glo), DLD1 parental (WT); type: cell-based, human; details: 7-day viability, n=2

SMILES | IC50 (DLD1 BRCA2 (−/−) cells; Homo sapiens, DLD-1, 168 h) | IC50 [1] | IC50 (DLD1 WT cells; Homo sapiens, DLD-1, 168 h) | IC50 (DLD1 BRCA2 (−/−) cells) | IC50 (DLD1 WT cells)
COc1ncc(Cl)cc1-c1cc(C)ncc1C(=O)Nc1nc2c(s1)CN(C(=O)c1ccccn1)C2 [Example 118] | 0.001 to 0.1 µM | 1 to 15 nM | 2 to 5 µM |  | 
COc1ccc(C(=O)N2Cc3nc(NC(=O)c4cnc(C)cc4-c4cc(Cl)ncc4OC)sc3C2)nc1 [Example 121] | 0.001 to 0.1 µM | 1 to 15 nM | ≥ 10 µM |  | 
COc1ccc(C#N)cc1-c1cc(C)ncc1C(=O)Nc1nc2c(s1)CN(C(=O)c1ccc(C(F)F)cn1)C2 [Example 122] | 0.001 to 0.1 µM | 1 to 15 nM | 5 to 10 µM |  | 
COc1ccc(C#N)cc1-c1cc(C)ncc1C(=O)Nc1nc2c(s1)CN(C(=O)c1c(Cl)cnn1C)C2 [Example 123] | 0.001 to 0.1 µM | 1 to 15 nM | ≥ 10 µM |  | 
COc1cnc(Cl)cc1-c1cc(C)ncc1C(=O)Nc1nc2c(s1)CN(C(=O)c1ccc(C(F)(F)F)cn1)C2 [Example 132] | 0.001 to 0.1 µM | 1 to 15 nM | 5 to 10 µM |  | 
COc1cnc(Cl)cc1-c1cc(C)ncc1C(=O)Nc1nc2c(s1)CC(Nc1ccc(O)cc1)CC2 (stereo not drawn) [Example 135] | 0.5 to 2 µM | 1 to 15 nM | 5 to 10 µM |  | 
COc1cnc(Cl)cc1-c1cc(C)ncc1C(=O)Nc1nc2c(s1)CN(C(=O)C1CC3(CC(OC)C3)C1)C2 (stereo not drawn) [Example 140] | 0.001 to 0.1 µM | 1 to 15 nM | 5 to 10 µM |  | 
COc1cnc(Cl)cc1-c1cc(C)ncc1C(=O)Nc1nc2c(s1)CC(N[C@H]1C[C@H](O)C1)CC2 (stereo partly drawn) [Example 141, 2′-Chloro-N-(6-(((1r,3r)-3-hydroxycyclobutyl)amino)-4,5,6,7-tetrahydrobenzo[d]thiazol-2-yl)-5′-methoxy-6-methyl-[4.4′-bipyridine]-3-carboxamide] |  | 1 to 15 nM |  | 0.001 to 0.1 µM | ≥ 10 µM
COc1cnc(Cl)cc1-c1cc(C)ncc1C(=O)Nc1nc2c(s1)CN(C(=O)c1ncccc1OC(F)F)C2 [Example 145] | 0.001 to 0.1 µM | 1 to 15 nM | ≥ 10 µM |  | 
COc1cnc(Cl)cc1-c1cc(C)ncc1C(=O)Nc1nc2c(s1)CN(C(=O)c1c(OC)cnn1C)C2 [Example 146] | 0.001 to 0.1 µM | 1 to 15 nM | ≥ 10 µM |  | 
COc1cnc(Cl)cc1-c1cc(C)ncc1C(=O)Nc1nc2c(s1)CN(C(=O)C1CC3(CC(O)C3)C1)C2 (stereo not drawn) [Example 148] | 0.1 to 0.25 µM | 1 to 15 nM | ≥ 10 µM |  | 
COc1ccncc1C(=O)N1Cc2nc(NC(=O)c3cnc(C)cc3-c3cc(Cl)ncc3OC)sc2C1 [Example 155] | 0.5 to 2 µM | 1 to 15 nM | ≥ 10 µM |  | 
COc1cnc(Cl)cc1-c1cc(C)ncc1C(=O)Nc1nc2c(s1)CN(C(=O)c1c(Cl)cnn1C)C2 [Example 156] | 0.001 to 0.1 µM | 1 to 15 nM | ≥ 10 µM |  | 
COc1cnc(Cl)cc1-c1cc(C)ncc1C(=O)Nc1nc2c(s1)CN(C(=O)c1nn(C)cc1OC)C2 [Example 157] | 0.25 to 0.5 µM | 1 to 15 nM | ≥ 10 µM |  | 
COc1cnc(Cl)cc1-c1cc(C)ncc1C(=O)Nc1nc2c(s1)CN(C(=O)c1ncccc1C(F)F)C2 [Example 158] | 0.1 to 0.25 µM | 1 to 15 nM | ≥ 10 µM |  | 
COc1cnc(Cl)cc1-c1cc(C)ncc1C(=O)Nc1nc2c(s1)CN(C(=O)c1ccn(C(F)F)n1)C2 [Example 159] | 0.1 to 0.25 µM | 1 to 15 nM | ≥ 10 µM |  | 
COc1cnc(Cl)cc1-c1cc(C)ncc1C(=O)Nc1nc2c(s1)CN(C(=O)c1cn(C)nc1Cl)C2 [Example 161] | 0.5 to 2 µM | 1 to 15 nM | ≥ 10 µM |  | 

Second part, led by results:

IC50 (DLD1 BRCA2 (−/−) cells; Homo sapiens, DLD-1, 168 h) | IC50 [1] | SMILES | IC50 (DLD1 WT cells; Homo sapiens, DLD-1, 168 h) | IC50 (DLD1 BRCA2 (−/−) cells) | IC50 (DLD1 WT cells)
0.1 to 0.25 µM | 1 to 15 nM | COc1cnc(Cl)cc1-c1cc(C)ncc1C(=O)Nc1nc2c(s1)CN(C(=O)[C@H]1C[C@H](C(F)(F)F)C1)C2 [Example 164, 4-(5-Cyano-2-methoxyphenyl)-6-methyl-N-(5-(pyridin-3-ylsulfonyl)-5,6-dibydro-4H-pyrrolo[3,4-d]thiazol-2-yl)nicotinamide] | ≥ 10 µM |  | 
0.1 to 0.25 µM | 1 to 15 nM | COc1cnccc1C(=O)N1Cc2nc(NC(=O)c3cnc(C)cc3-c3cc(Cl)ncc3OC)sc2C1 [Example 168] | ≥ 10 µM |  | 
0.1 to 0.25 µM | 1 to 15 nM | COc1cnc(Cl)cc1-c1cc(C)ncc1C(=O)Nc1nc2c(s1)CN(C(=O)c1ncccc1OC)C2 [Example 169] | ≥ 10 µM |  | 
0.1 to 0.25 µM | 1 to 15 nM | COc1cnc(Cl)cc1-c1cc(C)ncc1C(=O)Nc1nc2c(s1)CN(C(=O)c1ccnn1C)C2 [Example 170] | ≥ 10 µM |  | 
0.1 to 0.25 µM | 1 to 15 nM | COc1cnc(Cl)cc1-c1cc(C)ncc1C(=O)Nc1nc2c(s1)CN(C(=O)[C@H]1C[C@@H](OC)C1)C2 [Example 171] | ≥ 10 µM |  | 
0.001 to 0.1 µM | 1 to 15 nM | COc1cnc(Cl)cc1-c1cc(C)ncc1C(=O)Nc1nc2c(s1)CN(C(=O)c1cccnc1OC)C2 [Example 172] | ≥ 10 µM |  | 
0.1 to 0.25 µM | 1 to 15 nM | COc1cnc(Cl)cc1-c1cc(C)ncc1C(=O)Nc1nc2c(s1)CN(C(=O)c1ccc(O)cn1)C2 [Example 174] | ≥ 10 µM |  | 
≥ 2 µM | 1 to 15 nM | COc1cnc(Cl)cc1-c1cc(C)ncc1C(=O)Nc1nc2c(s1)CN(C(=O)c1cn(C(C)C)nc1C)C2 [Example 175] | ≥ 10 µM |  | 
0.001 to 0.1 µM | 1 to 15 nM | COc1cnc(Cl)cc1-c1cc(C)ncc1C(=O)Nc1nc2c(s1)CN(C(=O)C1CC(CC(F)F)C1)C2 (stereo not drawn) [Example 177] | ≥ 10 µM |  | 
0.001 to 0.1 µM | 1 to 15 nM | COc1ccc(C#N)cc1-c1cc(C)ncc1C(=O)Nc1nc2c(s1)CN(C(=O)C1CC(OC(F)F)C1)C2 (stereo not drawn) [Example 179] | ≥ 10 µM |  | 
0.25 to 0.5 µM | 1 to 15 nM | COc1cnc(Cl)cc1-c1cc(C)ncc1C(=O)Nc1nc2c(s1)CN(C(=O)[C@H]1C[C@@H](C#N)C1)C2 [Example 190] | ≥ 10 µM |  | 
0.001 to 0.1 µM | 1 to 15 nM | COc1cnc(Cl)cc1-c1cc(C)ncc1C(=O)Nc1nc2c(s1)CN(C(=O)c1ccnc(C)c1)C2 [Example 194] | ≥ 10 µM |  | 
0.001 to 0.1 µM | 1 to 15 nM | COc1cnc(Cl)cc1-c1cc(C)ncc1C(=O)Nc1nc2c(s1)CN(C(=O)C1CC(OC(F)(F)F)C1)C2 (stereo not drawn) [Example 196] | ≥ 10 µM |  | 
0.25 to 0.5 µM | 1 to 15 nM | COc1cnc(Cl)cc1-c1cc(C)ncc1C(=O)Nc1nc2c(s1)CN(C(=O)c1ccn(C)n1)C2 [Example 197] | ≥ 10 µM |  | 
0.1 to 0.25 µM | 1 to 15 nM | COc1cnc(Cl)cc1-c1cc(C)ncc1C(=O)Nc1nc2c(s1)CN(C(=O)c1ccc(C)cn1)C2 [Example 199] | 5 to 10 µM |  | 
0.1 to 0.25 µM | 1 to 15 nM | COc1cnc(Cl)cc1-c1cc(C)ncc1C(=O)Nc1nc2c(s1)CN(C(=O)[C@@H]1CCCCO1)C2 [Example 216, (S) 2′-chloro-5′-methoxy-6-methyl-N-(5-(tetrahydro-2H-pyran-2-carbonyl)-5,6-dihydro-4H-pyrrolo[3,4-d]thiazol-2-yl)-[4,4′-bipyridine]-3-carboxamide] | ≥ 10 µM |  | 
0.5 to 2 µM | 1 to 15 nM | COc1ccc(C#N)cc1-c1cc(C)ncc1C(=O)Nc1nc2c(s1)CN(C(=O)C1CC(C(F)F)C1)C2 (stereo not drawn) [Example 244] | ≥ 10 µM |  | 
≥ 2 µM | 1 to 15 nM | COc1ccc(C#N)cc1-c1cc(C)ncc1C(=O)Nc1nc2c(s1)CN(S(=O)(=O)NC(C)C)C2 [Example 269] | ≥ 10 µM |  | 
